Laboratory results: publication PMC11178787, “Development of a natural product optimization strategy for inhibitors against MraY, a promising antibacterial target” (Nature Communications, 2024)
Converted amounts (≈) assume the structure as drawn.

How the values were obtained:
E. coli ATCC 25922 = test system: T1, E. coli ATCC 25922; assay: microbe, parasite or virus in culture; conditions: Escherichia coli, ATCC25922
T1 construct: ATCC 25922
Protocol: (§1) MICs were determined by a microdilution broth method as recommended by the CLSI with MHB-II. For MICs of stable analogues, a 2-fold dilution of each compound was prepared in DMSO at 100-fold of the final concentration. The strains were inoculated with 5 × 10^5 cfu/mL in 96-well plates (each 100 μL/well), and 1 μL of DMSO solutions of the samples were added (contained less than 1% DMSO). The plates were incubated at 37 °C for 18 h and then MICs were determined. MICs of stable analogues in Table 1 were the highest value in three trials. MICs in Supplementary Table 1 were determined in one trial.  Fig. 2 Results of biological evaluations of hydrazone library. a General structures of hydrazine fragment moiety are shown. Each hydrazine class are represented by different colours (green; BZ, cyan; PA, grey; AC, yellow; AA, orange; LA). b–h MraY inhibitory activity and antibacterial activity of the hydrazone library. The bar graphs show the relative enzyme activity with DMSO as 100% when the compound is treated at given concentration (b,c; TUN at 100 nM, d,e; MRY at 10 nM, f.g; MRD at 100 nM, h; CAP at 1000 nM. n = 1), with the lower bars indicating higher inhibitory activity. The colour of the bars corresponds to Fig. 2a. […] Data of control compounds (van: vancomycin, col: colistin) are shown left column in each panel. E. faecium ATCC 35667, S. aureus ATCC 29213, P. aeruginosa ATCC 27853, K. pneumoniae ATCC 13883, E. cloacae ATCC 13047, A. baumannii ATCC 19606, E. coli ATCC 25922.

E. faecium ATCC 35667 = test system: T2, E. faecium ATCC 35667; assay: microbe, parasite or virus in culture; conditions: Enterococcus faecium, ATCC35667
T2 construct: ATCC 35667
Protocol: as §1

**Q.** Which MIC (E. coli ATCC 25922) does the source give for CN[C@H](CC(C)C)C(=O)N[C@H]1C(=O)N[C@@H](CC(N)=O)C(=O)N[C@H]2C(=O)N[C@H]3C(=O)N[C@H](C(=O)N[C@H](C(=O)O)c4cc(O)cc(O)c4-c4cc3ccc4O)[C@H](O)c3ccc(c(Cl)c3)Oc3cc2cc(c3O[C@@H]2O[C@H](CO)[C@@H](O)[C@H](O)[C@H]2O[C@H]2C[C@](C)(N)[C@H](O)[C@H](C)O2)Oc2ccc(cc2Cl)[C@H]1O [vancomycin] here?
**A.** > 50 µM

**Q.** And the MIC (E. faecium ATCC 35667)?
**A.** < 0.5 µM

**Q.** Which results are given for CC1(C)S[C@@H]2[C@H](NC(=O)[C@H](N)c3ccccc3)C(=O)N2[C@H]1C(=O)O [ampicillin]?
**A.** MIC (E. coli ATCC 25922): 50 µM (≈ 17.5 µg/mL); MIC (E. faecium ATCC 35667): < 0.5 µM
